In series [1] the target is T1, Avena-derived HPPD SEQ ID NO: 1 (Avena sativa, UniProt A0ACD5V6K6, DEL109-109). Briefly: biochemical. Conditions: for koff / Off rate k1, individual experiments: direct or indirect radiochemical method. Type of series: binding. The procedure: On rates (governed by an association rate constant, kon) for the formation of the enzyme:inhibitor complexes, EI and off rates (governed by a dissociation rate constant, koff) were determined by methods known in the art and essentially as described in Hawkes et al. (2001) Proc. Bright. Crop. Prot. Conf. Weeds, 2:563-568 and in PCT Publication No. WO 02/46387).
Off rates (k1 in the scheme below) were derived from exchange rate studies where either the test inhibitor, I, or its exchange partner, J were radiolabelled and the data fit according to the scheme below. As noted in Hawkes et al. (2001) Proc. Bright. Crop. Prot. Conf.
After 30 minutes the exchange reaction was initiated with addition of 100 μl 1 mM ‘cold’ structure A with thorough mixing, and, immediately, 150 μl were withdrawn and loaded onto a NAP5 column, the protein exchanged into 50 mM BisTrisPropane buffer at pH 7.0 containing 0.1M KCl by rapid (<2 min) chromatography down a NAP5 G25 Sephadex® column (GE Healthcare Ltd, Buckinghamshire UK) and the amount of ^14C bound to protein measured by Optiphase scintillant using a Tri-Carb® 2900TR scintillation counter (Perkin Elmer, Wellesley, Mass.). Further aliquots were removed and measured in the same way at various times over minutes or hours as required in order to determine the exchange kinetics.
In this case, off rates were determined by preincubating ˜200 pmoles HPPD in reaction buffer (50 mM BTP pH 7, 25 mM Na ascorbate, 4 μg/ml bovine catalase, and 10% glycerol) containing ˜1.0 nmoles ^14C inhibitor at 25° C. in a total assay volume of 1.3 ml. After 30 minutes the reaction vessel was transferred to ice. After a further 10 minutes at ice temperature the exchange reaction was initiated by addition of 100 μl 1 mM Structure A, with thorough mixing, and 150 μl was withdrawn, loaded and quickly exchanged down a NAP5 column in a cold room at ˜5-8° C. in order to quantify the amount of radiolabel remaining bound to the protein at various time from the start of exchange at ice temperature.
Off rates (k1) of HPPD inhibitors that are not readily available radiolabelled or that present other measurement problems (for example high levels of background non-specific protein-binding which can be measured as radiolabel binding that persists in the presence of high concentrations of ‘cold’ inhibitor) may be measured indirectly. […] Exemplary methods are also described in PCT Publication No. WO 02/46387.

Series [2] has as its system tobacco plants expressing wheat HPPD (A7WK82). Put plainly: Glasshouse spray test on transgenic tobacco expressing wheat HPPD. Format: in vivo. Conditions: 14 DAT. The procedure: (§1) The CTP/HPPD encoding nucleotide sequence is edited by PCR (or initially synthesized) to include a 5′ XhoI site, a TMV omega enhancer (SEQ ID NO: 86) and a 3′ KpnI site (and to remove any such internal sites).
For example, a master plate of Agrobacterium tumefaciens containing the HPPD expressing binary vector is used to inoculate 10 ml LB (L broth) containing 100 mg/l rifampicin plus 50 mg/l kanamycin using a single bacterial colony. This is incubated overnight at 28° C. shaking at 200 rpm. This entire overnight culture is used to inoculate a 50 ml volume of LB containing the same antibiotics. Again this is cultured overnight at 28° C. shaking at 200 rpm. The Agrobacterium cells are pelleted by centrifuging at 3000 rpm for 15 minutes and then resuspended in MS (Murashige and Skoog) medium containing 30 g/l sucrose, pH 5.9 to an OD (600 nM)=0.6. This suspension is dispensed in 25 ml aliquots into petri dishes.
Clonally micro-propagated tobacco shoot cultures are used to excise young (not yet fully expanded) leaves. The mid rib and outer leaf margins are removed and discarded, and the remaining lamina cut into 1 cm squares. These are transferred to the Agrobacterium suspension for 20 minutes. […]
(§2) As shoots start to regenerate from the callusing leaf explants, these are removed to Shoot elongation medium (MS medium, 30 g/l sucrose, 8 g/l plantagar, 100 mg/l kanamycin, 200 mg/l timentin, 250 mg/l carbenicillin, pH 5.9). Stable transgenic plants readily root within 2 weeks. […]
(§3) Putative transgenic plants that are rooting and showing vigorous shoot growth on the medium incorporating kanamycin are analysed by PCR using primers that amplified a 500 bp fragment within the HPPD transgene. […]
(§4) A sub-set of about 30 plants were then selected on the basis of similar size from each population for spray testing. […] Plants were assessed for damage and scored at 14 days after treatment (DAT). […]

The target of series [3] is T1, Avena-derived HPPD SEQ ID NO: 1. Briefly: On rate (kon, k2) of enzyme:inhibitor complex formation. Format: binding. Conditions: read-out: On rate, activity based method.
Series [4] concerns tobacco plants expressing Arabidopsis HPPD (SEQ ID NO: 13). Put plainly: Glasshouse spray test on transgenic tobacco expressing Arabidopsis HPPD. Conditions: 600 g/ha isoxaflutole, 14 DAT. Type of series: in vivo. Here is the method: as §1
(§5) For example, a master plate of Agrobacterium tumefaciens containing the HPPD expressing binary vector is used to inoculate 10 ml LB (L broth) containing 100 mg/l rifampicin plus 50 mg/l kanamycin using a single bacterial colony. This is incubated overnight at 28° C. shaking at 200 rpm. This entire overnight culture is used to inoculate a 50 ml volume of LB containing the same antibiotics. Again this is cultured overnight at 28° C. shaking at 200 rpm. […]
as §2, §3, §4

Series [5] relates to tobacco plants expressing Pseudomonas fluorescens HPPD (SEQ ID NO: 14). Briefly: Glasshouse spray test on transgenic tobacco expressing Pseudomonas HPPD. Format: in vivo. Conditions: 600 g/ha isoxaflutole, 14 DAT. The procedure: as §1, §5, §2, §3, §4
Series [6] deals with T1, Avena-derived HPPD SEQ ID NO: 1. Briefly: HPPD assay for KmHPP and kcat (HPLC/UV quantitation of homogentisate). Type of series: biochemical. Conditions: 25° C. The procedure:
The assay solution was transferred to Chromacol 03-CVG HPLC vials, sealed and the amount of homogentisate formed in a 40 μl aliquot determined by injection onto a reverse phase Aqua C18 5μ 75×4.6 mm HPLC column running 5.5% acetonitrile 0.1% TFA (Buffer A) at 1.5 ml/min. The column was eluted at 1.5 ml/minute using a 2 minute wash in buffer A, followed by a 2 minute wash in a 30/70 mixture of buffer A and 100% acetonitrile, and a further 3.5 minute wash in buffer A. The elution of homogentisate was monitored by UV at 292 nm and the amount formed in each reaction quantified by comparison with a standard calibration curve.
Km and Vmax values were determined (for example FIG. 1) using a non linear least squares fit using Grafit 4™ software (Erithacus Software, Middlesex, UK). Kcat values were determined by dividing the maximum rate, Vmax expressed in nmol/s by the number of nmoles of HPPD enzyme (based on the concentration determined by active-site titration).
For the alternative assumption of one active site per monomer then calculated kcat values should simply be correspondingly and systematically halved.

The mark [7] stands for this setting: Kd of inhibitor over Km HPP of SEQ ID NO: 1.
Setting [8] is: 25° C., read-out: Off rate k1 / koff (average or final estimate).
[9] abbreviates: 25° C., individual measurements, read-out: Off rate k1, individual experiments.
Where [10] appears, read: 25° C., individual measurements.

“And” between values parts separate entries of the source, which are not always exact repeats. Equal values may be shown once. Read-outs that look alike come from different tables or passages of the source.

The Kd is the equilibrium constant for the complex coming apart. Read a high Kd as a looser complex. The term Km denotes the substrate concentration at which the rate is half of its maximum.

`CCOc1c(S(C)(=O)=O)ccc(C(=O)C2C(=O)CC(C)CC2=O)c1Cl` (stereo not shown) [Compound A]: the Kd/Km ratio in series [1] (setting [7]) amounted to 0.000036.

`CS(=O)(=O)c1ccc(C(=O)C2C(=O)CCCC2=O)c([N+](=O)[O-])c1` [Compound B, mesotrione]: the “Events exhibiting < or equal to 10% damage” value in series [2] (600 g/ha mesotrione) is “Five out of 33”.

Take `COCCOCc1nc(C(F)(F)F)ccc1C(=O)C1C(=O)C2CCC(C2)C1=O` (stereo not shown) [Compound C]: in series [1], binding was put at a Kd of 7.1 nM. In addition, the values for the koff in series [1] (setting [8]) and in series [1] (setting [9]) were 5.3e-05 s⁻¹ and 5.67e-05 s⁻¹, respectively. The Kd/Km ratio in series [1] (setting [7]) was 0.0013.

In series [1], `CS(=O)(=O)c1cc(C(F)(F)F)ccc1C(=O)C(C#N)C(=O)C1CC1` (stereo not shown) [Compound D] displayed a Kd of 1.36 nM. The koff in series [1] (setting [8]) is 4.39e-05 s⁻¹; in series [1] (setting [9]), 4.5e-05 s⁻¹. Further, the Kd/Km ratio in series [1] (setting [7]) came out at 0.00025. Besides, the kon in series [3] is 57000 M⁻¹ s⁻¹.

In the case of `CS(=O)(=O)c1ccc(C(=O)C2C(=O)CCCC2=O)c(Cl)c1COCC(F)(F)F` [Compound E], in series [1], binding was characterised by a dissociation constant (Kd) of 0.228 nM and the Kd/Km ratio stood at 0.000042. The “Off rate k1, individual experiments” value in series [1] (setting [10]) was 2.02E-05 s^−1 and 3.00E-05 s^−1 and 3.67E-05 s^−1 and 3.17E-05 s^−1 (2×) and 2.67E-05 s^−1 (2×) and 3.33E- 05 s^−1. Besides, the koff in series [1] (read-out: Off rate k1, individual experiments, 25° C., individual measurements) is 3.08e-05 s⁻¹.

`Cc1c(C(=O)C2C=NN(C)C2=O)ccc(S(C)(=O)=O)c1C1=NOCC1` (stereo not shown) [Compound F]: the koff was 6.72e-05 s⁻¹ in series [1] (setting [8]) and 7.08e-05 s⁻¹ in series [1] (setting [9]). Besides, the “Off rate k1, individual experiments” value in series [1] (setting [10]) was 6e-05 s⁻¹ and 7e-05 s⁻¹ and 6.83e-05 s⁻¹.

On to `CS(=O)(=O)c1cc(C(F)(F)F)ccc1C(=O)c1cnoc1C1CC1` [isoxaflutole], for which the Bleaching entry was “Full” in series [4]; “Full and Green and Partly” in series [2] (600 g/ha isoxaflutole); “Full and Partly” in series [5]. The “Events showing less than 20% damage” value in series [2] (600 g/ha isoxaflutole) is 3/33. Also, the “Plants showing 50% damage or less” value in series [5] is 4/32.

B1: SEQ ID NO: 1: the HPPD amino acid sequence of Avena sativa (protein, listed as Avena sativa)
chain: MPPTPATATGAAAAAVTPEHAARSFPRVVRVNPRSDRFPVLSFHHVELWCADAASAAGRFSFALGAPLAARSDLSTGNSAHASLLLRSGALAFLFTAPYAPPPQEAATAATASIPSFSADAARTFAAAHGLAVRSVGVRVADAAEAFRVSVAGGARPAFAPADLGHGFGLAEVELYGDVVLRFVSYPDETDLPFLPGFERVSSPGAVDYGLTRFDHVVGNVPEMAPVIDYMKGFLGFHEFAEFTAEDVGTTESGLNSVVLANNSEAVLLPLNEPVHGTKRRSQIQTYLEYHGGPGVQHIALASNDVLRTLREMRARTPMGGFEFMAPPQAKYYEGVRRIAGDVLSEEQIKECQELGVLVDRDDQGVLLQIFTKPVGDRPTFFLEMIQRIGCMEKDEVGQEYQKGGCGGFGKGNFSELFKSIEDYEKSLEVKQSVVAQKS
With B1, the Km in series [6] (pH 7.0) was 5.38 µM. The kcat average in series [6] (one active-site per dimer assumed) was found to be 6.46 s⁻¹.
